Experimental data taken from patent US7422846B2, “Natural ligand for orphan G protein coupled receptor GPR86 and methods of use” (Euroscreen S.A, priority 2001, dated 2008).

Target: T1, GPR86 (P2Y13) human receptor (Homo sapiens, UniProt Q9BPV8, T179M)
T1 sequence (Q9BPV8 22-354 T179M): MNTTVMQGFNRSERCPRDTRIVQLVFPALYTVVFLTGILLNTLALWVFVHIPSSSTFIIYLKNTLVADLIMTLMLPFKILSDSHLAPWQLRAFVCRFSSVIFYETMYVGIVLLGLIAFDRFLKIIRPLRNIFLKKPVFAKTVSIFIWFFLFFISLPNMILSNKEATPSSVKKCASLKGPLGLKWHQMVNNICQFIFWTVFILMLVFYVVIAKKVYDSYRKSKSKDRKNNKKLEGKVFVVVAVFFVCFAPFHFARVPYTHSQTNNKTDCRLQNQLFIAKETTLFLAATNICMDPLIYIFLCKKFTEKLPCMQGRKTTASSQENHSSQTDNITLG
Test: IP3 accumulation in 1321N1 cells (AG32) expressing GPR86 (P2Y13) together with Gα16
Format: cell-based
Design: expressed in transfected cells; host or cells: 1321N1 astrocytoma clone AG32 (stably expressing Gα16 from pERAEQ2), G418-selected
Details: for EC50: 1321N1 cells expressing GPR86 and Gα16, 30 s, mean±S.D. of three independent experiments, read-out: EC50, IP3 accumulation
Procedure: Cells of the invention, for example, 1321N1 cells, are labelled for 24 hours with 10 μCi/ml [^3H] inositol in inositol free DMEM containing 5% FCS, antibiotics, amphotericin, sodium pyruvate and 400 μg/ml G418. Cells are incubated for 2 h in Krebs-Ringer Hepes (KRH) buffer of the following composition (124 mM NaCl, 5 mM KCl, 1.25 mM MgSO4, 1.45 mM CaCl2, 1.25 mM KH2PO4, 25 mM Hepes (pH: 7.4) and 8 mM glucose). The cells are then challenged with various nucleotides for 30 s. The incubation is stopped by the addition of an ice cold 3% perchloric acid solution. IP are extracted and separated on Dowex columns as previously described (25). 2MeSATP and ATP solutions (1 mM) are treated at room temperature with 20 units/ml CPK and 10 Mm cp for 90 min to circumvent problems arising from the contamination and degradation of triphosphate nucleotide solutions.
CHO-K1 and 1321N1 cells were transfected with the recombinant GPR86-pEFIN5 plasmid or with the plasmid alone using the FuGENE™6 transfection reagent (Roche Molecular Biochemicals). A clone called AG32 corresponding to 1321N1 cells previously transfected with pERAEQ2 plasmid encoding Gα16 (provided by Euroscreen), was transfected. The CHO-K1 and 1321N1 transfected cells were selected with 400 μg/ml G418 in complete medium (10% FBS, 100 units/ml penicillin, 100 μg/ml streptomycin and 2.5 μg/ml amphotericin B in respectively Ham's F12 or DMEM (Dulbecco's modified Eagle's) medium) two days after transfection and maintained in the same medium. The AG32 cells were maintained in the same DMEM complete medium supplemented with 500 μg/ml zeocin.
The pool of G418-resistant clones was tested for its functional IP3 response to several nucleotides, according to the method described above. The cells were challenged by various nucleotides at a concentration of 100 μM for 30 s: ATP, ADP, UTP, UDP, ITP, IDP, TDP.
Concentration-action curves for ADP, 2MeSADP and ADPβS. […] 1321N1 transfected cells were incubated in the presence of various concentrations of ADP, 2MeSADP and ADPβS for 30 s. The data represent the mean±S.D. of triplicate experimental points obtained in one representative experiment of three.
AG32 cells were seeded (200,000 cells per dish) on 35 mm (diameter) Petri dishes and labeled for 24 h with 5 μCi/ml [3H]-myoinositol in inositol free DMEM containing 5% fetal calf serum, antibiotics, amphotericin, sodium pyruvate, and 400 μg/ml of G418. Cells were incubated for 2 h in Krebs-Ringer Hepes (KRH) buffer (124 mM NaCl, 5 mM KCl, 1.25 mM MgSO4, 1.45 mM CaCl2, 1.25 mM KH2PO4, 25 mM Hepes (pH 7.4) and 8 mM D-glucose). The cells were then incubated in presence of ADP, ATP or 2MeSATP for 30 s. The incubation was stopped by the addition of 1 ml of an ice-cold 3% perchloric acid solution. Prior to the stimulation, ATP and 2MeSATP (1 mM solutions) were incubated for 90 min at room temperature with 20 units/ml creatine phosphokinase (CPK) and 10 mM creatine phosphate (CP). The reaction was stopped by addition of 10 mM iodoacetamide.
AG32 cells were seeded (200,000 cells per dish) on 35 mm (diameter) Petri dishes and labeled for 24 h with 5 μCi/ml [^3H]-myoinositol in inositol free DMEM containing 5% fetal calf serum, antibiotics, amphotericin, sodium pyruvate, and 400 μg/ml of G418. Cells were incubated for 2 h in Krebs-Ringer Hepes (KRH) buffer (124 mM NaCl, 5 mM KCl, 1.25 mM MgSO4, 1.45 mM CaCl2, 1.25 mM KH2PO4, 25 mM Hepes (pH 7.4) and 8 mM D-glucose). The cells were then incubated in presence of two different concentrations (100 nM and 10 μM) of ADP or ApnA (n=3-6) for 30 s. The incubation was stopped by the addition of 1 ml of an ice-cold 3% perchloric acid solution.
AG32 cells were seeded (200,000 cells per dish) on 35 mm (diameter) Petri dishes and labeled for 24 h with 5 μCi/ml [^3H]-myoinositol in inositol free DMEM containing 5% fetal calf serum, antibiotics, amphotericin, sodium pyruvate, and 400 μg/ml of G418.

Row | SMILES | IP3 response to nucleotides (100 μM for 30 s, pool of G418-resistant clones expressing GPR86 and Gα16) | EC50 [nM]
1 | Nc1ncnc2c1ncn2[C@@H]1O[C@H](COP(=O)(O)OP(=O)(O)O)[C@@H](O)[C@H]1O [ADP] | induced an IP3 response | 11.4 ± 2.2
2 | CSc1nc(N)c2ncn([C@@H]3O[C@H](COP(=O)(O)OP(=O)(O)O)[C@@H](O)[C@H]3O)c2n1 [2MeSADP, 2-methylthio-ADP] |  | 14.2 ± 3
